Measurements taken from ChEMBL document CHEMBL1146520, “Sterol and triterpenoid constituents of Verbena littoralis with NGF-potentiating activity” (J Nat Prod, 2003).
Active and inactive are the calls of the source. The calls are words filed in the database; no cut-off is given here.

Columns and labels:
Format in all cases: functional, cell-based
PC-12 [1] = assay: Enhancement of nerve growth factor-stimulated neurite outgrowth in rat PC12D cells at 1 to 3 uM
PC-12 [2] = assay: Enhancement of neurite outgrowth in rat PC12D cells up to 30 uM in absence of nerve growth factor
PC-12 [3] = assay: Enhancement of nerve growth factor-stimulated neurite outgrowth in rat PC12D cells at 3 to 10 uM

Q: For `C[C@H]1[C@H](C)CC[C@]2(C(=O)O)CC[C@]3(C)C(=CC[C@@H]4[C@@]5(C)CC[C@H](O)C(C)(C)[C@@H]5CC[C@]43C)[C@H]12`, which Activity (PC-12 [1]) is on record?
A: Active

Q: What about the Activity (PC-12 [2]) of the same compound?
A: inactive

Q: What does the source list for `CC[C@H](C[C@@H](O)[C@@H](C)[C@H]1CC[C@H]2[C@@H]3[C@H](O)C=C4C[C@@H](O)CC[C@]4(C)[C@H]3CC[C@]12C)C(C)C`?
A: Activity (PC-12 [3]): Active; Activity (PC-12 [2]): inactive

Q: `CC1(C)CC[C@]2(C(=O)O)CC[C@]3(C)C(=CC[C@@H]4[C@@]5(C)CC[C@H](O)C(C)(C)[C@@H]5CC[C@]43C)[C@@H]2C1` was tested. Which Activity (PC-12 [3]) did it give?
A: Active

Q: And the Activity (PC-12 [2])?
A: inactive

Q: `CC[C@H](C[C@@H](O)[C@@H](C)[C@H]1CC[C@H]2[C@@H]3[C@H](O)C=C4[C@@H](O)[C@@H](O)CC[C@]4(C)[C@H]3CC[C@]12C)C(C)C` was tested. Which Activity (PC-12 [2]) did it give?
A: inactive
